Experimental data taken from US20250177384A1, “CHROMANOL COMPOUNDS FOR TREATMENT OR PROPHYLAXIS OF AGEING-ASSOCIATED DISORDERS” (Sulfateq B.V., priority 2022, published 2025).

Assays:
W1118 flies = assay: Drosophila lifespan with compound added to the food; type: in vivo; conditions: for survival of flies versus controls: higher doses of 10, 100, 1000 μM in food, from larvae state until death, FIG. 1, FIG. 2; for lifespan of Drosophila: treatment via food
Procedure: […] flies were bred and housed at 25° C. with a 12 h:12 h light/dark-cycle. Flies were kept in vials containing approximately 5 mL of Bloomington food consisting of sucrose, yeast suspension, agar, […] and fresh yeast. Flies kept as a stock were flipped to fresh vials weekly. Food was stored at 18° C. and warmed at room temperature before use. SUL109 and SUL121 were used to assess the effect of chromanol compounds on the lifespan of the fly stocks. The compounds were independently tested. Either SUL109 or SUL121 were added to the food to a final concentration of 10 μM, 100 μM and 1000 μM. […] flies were anesthetized in small groups using CO2. Subsequently, flies were collected at a density of […] per tube. At day 10 and 11 eclosing adults were anesthetized and housed at a density of 20 males and females per tube. Ten vials were used per study condition (total of 100 males and 100 females). During the lifespan, flies were transferred onto new vials containing fresh food 3 times a week, and the number and sex of dead flies was recorded.

[1] = test system: thoracic aorta segments of EC-KO mice; assay: Acute effect on endothelium-dependent relaxation (pre-incubation of aorta segments); conditions: pre-incubation 100 μM for 30 minutes
Procedure: (§1) Segments of thoracic aorta were isolated and mounted in wire-myograph containing Krebs Henseleit buffer (at 37° C., oxygenated with 95% O2 and 5% CO2) to assess endothelium-dependent (ED) relaxation.
(§2) A stable synthetic analog of the endoperoxide prostaglandin PGH2, namely U46619, was used for pre-constriction. Thoracic aorta segments were washed and subsequently pre-constricted with U46619 (30-60 nM final concentration; 75-100% of the response to 100 mM KCl), followed by a dose response curve with ED vasodilator acetylcholine (ACh) (10^−9-10^−5 M final concentration).
The acute effect of SUL138 was evaluated by pre-incubating with 100 μM for 30 minutes.

Ercc1−/− (EC-KO) mice [2] = assay: Renal function: urine creatinine, urine albumin, plasma creatinine after chronic treatment; type: in vivo
Procedure: (§3) EC-KO mice and corresponding littermates (LM) received either SUL138 treated (30 mg SUL138/kg BW/day) or vehicle treated (0.015% [v/v] ethanol) chow for 8 weeks (14-22 weeks of age).
At the age of 21 weeks, animals were put in metabolic cages. After 10 h of acclimatization, 24 h urine was collected. At the age of 22 weeks, mice were euthanized, urine, blood plasma and tissue were collected.
[…] levels in urine were measured in the samples collected at the age of 21 weeks and at the time euthanasia (22 weeks). QuantiChrom Creatinine Assay Kit (1:2 sample dilution) was used according to manufacturer's instructions.
Albumin levels in urine were measured in the samples collected at the time euthanasia (22 weeks). Mouse albumin ELISA kit ab108792 (1:400 sample dilution) was used according to manufacturer's instructions.
Blood plasma creatinine was measured in the samples collected at the time euthanasia (22 weeks). […]. QuantiChrom Creatinine Assay Kit […] was used according to manufacturer's instructions.

[3] = test system: Ercc1-deficient mouse models; assay: Persistent DNA damage in Ercc1-deficient mouse models; type: in vivo; conditions: no method or data given
Ercc1−/− (EC-KO) mice [4] = assay: Endothelium-dependent relaxation of thoracic aorta segments (wire-myograph) after chronic treatment; type: in vivo
Procedure: as §3, §1
Contraction of the thoracic aorta isolates was induced with 100 mM KCl (final concentration) to evaluate vessel viability.
as §2
To evaluate the contribution of different pathways to vasodilator response, segments were incubated with inhibitors for 15 minutes prior to pre-constriction with U46619. L-NAME (10^−4 M) was added to assess nitric oxide (NO) contribution to vasodilator response. L-NAME, apamin (100 nM) and TRAM-34 (10 μM) were added to assess ED hyperpolarization factor (EDHF) contribution to vasodilator response.

[5] = test system: accelerated aging animal models; conditions: chronic treatment; cited from earlier work

With `Cc1c(C)c2c(c(C)c1O)CCC(C)(C(=O)N1CCN(CCO)CC1)O2` (stereo not drawn) [SUL109, (6-hydroxy-2,5,7,8-tetramethylchroman-2-yl)(4-(2-hydroxyethyl)piperazin-1-yl)methanone] the “survival of flies versus controls” value (W1118 flies) was “better survival than the controls” and the “lifespan of Drosophila” value (W1118 flies) was “increased lifespan”.
In the case of `Cc1c(C)c2c(c(C)c1O)CCC(C)(C(=O)N1CCNCC1)O2` (stereo not drawn) [SUL121, (6-hydroxy-2,5,7,8-tetramethylchroman-2yl)(piperazin-1-yl)methanone], the “survival of flies versus controls” value (W1118 flies) is reported as “better survival than the controls” and the “lifespan of Drosophila” value (W1118 flies) is reported as “increased lifespan”.
In the case of `Cc1c(C)c2c(c(C)c1O)CC[C@@](C)(C(=O)N1CCN(CCO)CC1)O2` [SUL138, S-(6-hydroxy-2,5,7,8-tetramethylchroman-2-yl)(4-(2-hydroxyethyl)piperazin-1-yl)methanone], the “ED relaxation after acute treatment” value [1] is reported as “no effect on ED relaxation”, the “albumin/creatinine ratio in urine” value (Ercc1−/− (EC-KO) mice [2]; EC-KO mice, 22 weeks, FIG. 8) is reported as “significant improvement of albumin/creatinine ratios” and the “creatinine filtration (creatinine in 24 h urine)” value (Ercc1−/− (EC-KO) mice [2]; EC-KO mice, 24 h urine at 21 weeks, FIG. 10) is reported as “significantly improved”. For the same compound, the “creatinine filtration (urine creatinine)” value (Ercc1−/− (EC-KO) mice [2]; EC-KO mice, urine at 22 weeks, FIG. 7) was “significantly improved creatinine filtration”, the “renal function (summary)” value (Ercc1−/− (EC-KO) mice [2]; Ercc1-deficient mouse models) was “protection of renal function” and the “accumulation of persistent DNA damage” value [3] was “attenuation of the accumulation of persistent DNA damage”. For the same compound, the “ED relaxation (acetylcholine response after U46619 pre-constriction)” value (Ercc1−/− (EC-KO) mice [4]; chronic treatment 30 mg/kg BW/day in chow for 8 weeks, EC-KO mice, compared to LM control levels, FIG. 3) was “restored ED relaxation”, the “pathway contribution to ACh response (EDHF-driven ED relaxation)” value (Ercc1−/− (EC-KO) mice [4]; chronic treatment, EC-KO mice, L-NAME curve, FIG. 6) was “increased EDHF-driven ED relaxation” and the “vascular function (summary)” value (Ercc1−/− (EC-KO) mice [4]; chronic treatment, isolated tissue from Ercc1-deficient mouse models) was “full preservation of vascular function through EDHF rescue”.
In the case of `CCCCc1nc(Cl)c(CO)n1Cc1ccc(-c2ccccc2-c2nn[nH]n2)cc1` [losartan], the “endothelial dependent relaxation / vasomotor (vasodilator) function” value [5] is given as “did not have a beneficial effect”.
In the case of `CCCc1nn(C)c2c(=O)[nH]c(-c3cc(S(=O)(=O)N4CCN(C)CC4)ccc3OCC)nc12` [sildenafil], the “endothelial dependent relaxation / vasomotor (vasodilator) function” value [5] is listed as “not able to improve endothelial dependent relaxation”.
